Data published in the NIST ThermoML archive (doi:10.1016/j.jct.2005.10.006).
Where “and” joins values, the source holds several entries; their conditions need not be identical. Equal values may be shown once.

Test: xn = mol fraction of the nth substance listed
Details: Fluid (supercritical or subcritical phases), Spherical resonator

N#N [nitrogen] + C
Details	speed of sound
170 K, 124.7 kPa, x1 = 0.5422	291.53 m/s
170 K, 150 kPa, x1 = 0.5422	291.29 m/s
170 K, 174.8 kPa, x1 = 0.5422	291.06 m/s
170 K, 199.8 kPa, x1 = 0.5422	290.83 m/s
170 K, 224.8 kPa, x1 = 0.5422	290.59 m/s
170 K, 249.8 kPa, x1 = 0.5422	290.36 m/s
170 K, 279.7 kPa, x1 = 0.5422	290.07 m/s
170 K, 280 kPa, x1 = 0.5422	290.07 m/s
170 K, 409.7 kPa, x1 = 0.5422	288.85 m/s
170 K, 409.8 kPa, x1 = 0.5422	288.85 m/s
170 K, 680.3 kPa, x1 = 0.5422	286.28 m/s
170 K, 680.4 kPa, x1 = 0.5422	286.28 m/s
170 K, 1293 kPa, x1 = 0.5422	280.36 m/s
170 K, 2374 kPa, x1 = 0.5422	269.67 m/s and 269.68 m/s
170 K, 3248 kPa, x1 = 0.5422	261.01 m/s
170 K, 3249 kPa, x1 = 0.5422	260.99 m/s
170 K, 3953 kPa, x1 = 0.5422	254.33 m/s
170 K, 3954 kPa, x1 = 0.5422	254.32 m/s
170 K, 4555 kPa, x1 = 0.5422	249.39 m/s
170 K, 4572 kPa, x1 = 0.5422	249.51 m/s
190 K, 311.9 kPa, x1 = 0.5422	307.35 m/s
190 K, 457.6 kPa, x1 = 0.5422	306.42 m/s
190 K, 762.5 kPa, x1 = 0.5422	304.49 m/s
190 K, 1464 kPa, x1 = 0.5422	300.13 m/s
190 K, 2748 kPa, x1 = 0.5422	292.7 m/s
190 K, 3852 kPa, x1 = 0.5422	287.32 m/s
190 K, 4810 kPa, x1 = 0.5422	284.03 m/s
190 K, 5716 kPa, x1 = 0.5422	282.84 m/s
215 K, 351.4 kPa, x1 = 0.5422	327.5 m/s
215 K, 516.2 kPa, x1 = 0.5422	326.87 m/s
215 K, 863.4 kPa, x1 = 0.5422	325.57 m/s
215 K, 1672 kPa, x1 = 0.5422	322.77 m/s
215 K, 3199 kPa, x1 = 0.5422	318.49 m/s
215 K, 4573 kPa, x1 = 0.5422	316.24 m/s
215 K, 5826 kPa, x1 = 0.5422	316.02 m/s
215 K, 7070 kPa, x1 = 0.5422	317.96 m/s
220 K, 99.6 kPa, x1 = 0.2	363.86 m/s
220 K, 101.5 kPa, x1 = 0.2	363.89 m/s
220 K, 200 kPa, x1 = 0.1	374.49 m/s
220 K, 249.1 kPa, x1 = 0.2	362.81 m/s
220 K, 249.2 kPa, x1 = 0.2	362.81 m/s
220 K, 249.5 kPa, x1 = 0.2	362.85 m/s
220 K, 498.6 kPa, x1 = 0.2	361.06 m/s
220 K, 498.8 kPa, x1 = 0.2	361.05 m/s
220 K, 499.1 kPa, x1 = 0.2	361.09 m/s
220 K, 501.4 kPa, x1 = 0.1	371.96 m/s
220 K, 998.6 kPa, x1 = 0.2	357.56 m/s
220 K, 999.3 kPa, x1 = 0.2	357.56 m/s
220 K, 1001 kPa, x1 = 0.1	367.77 m/s
220 K, 1003 kPa, x1 = 0.2	357.57 m/s
220 K, 2006 kPa, x1 = 0.2	350.72 m/s
220 K, 2007 kPa, x1 = 0.1	359.38 m/s
220 K, 2008 kPa, x1 = 0.2	350.73 m/s
220 K, 3014 kPa, x1 = 0.2	344.27 m/s
220 K, 3016 kPa, x1 = 0.2	344.28 m/s
220 K, 3018 kPa, x1 = 0.1	351.21 m/s
220 K, 4002 kPa, x1 = 0.2	338.63 m/s
220 K, 4034 kPa, x1 = 0.2	338.48 m/s
220 K, 4040 kPa, x1 = 0.1	343.53 m/s
220 K, 5057 kPa, x1 = 0.2	333.84 m/s
220 K, 6079 kPa, x1 = 0.2	331.09 m/s
220 K, 6099 kPa, x1 = 0.1	332.63 m/s
220 K, 7000 kPa, x1 = 0.2	331.07 m/s
220 K, 7981 kPa, x1 = 0.2	334.7 m/s
220 K, 8215 kPa, x1 = 0.1	339.23 m/s
220 K, 9000 kPa, x1 = 0.2	343.57 m/s
220 K, 9974 kPa, x1 = 0.2	357.39 m/s
220 K, 10421 kPa, x1 = 0.1	383.6 m/s
220 K, 10996 kPa, x1 = 0.2	376.87 m/s
220 K, 12068 kPa, x1 = 0.2	401.11 m/s
220 K, 12996 kPa, x1 = 0.2	423.71 m/s
220 K, 14014 kPa, x1 = 0.2	449.03 m/s
220 K, 14274 kPa, x1 = 0.1	498.94 m/s
